Assay results from US11466016B2, “Pharmaceutical compounds” (priority 2018, dated 2022).
Counter-ions that a name gives are not always drawn. Like-named read-outs stand apart in the source and are kept apart here.

Target: SHP2 (Homo sapiens (Human), UniProt Q06124)
Assay: SHP2 Biochemical Assay (DiFMUP conversion, pIRS1 activating peptide)
Procedure: SHP2 activity was monitored by measuring the conversion of the surrogate substrate 6,8-difluoromethylumbelliferyl phosphate (DiFMUP) to the fluorescent product, 6,8-difluoromethylumbelliferone (DiFMU).
SHP2 was pre-incubated with test compounds and the activating peptide pIRS1 (H2N-LN(pY)IDLDLV-(PEG)8-LST(pY)ASINFQK-amide) for 30 min, prior to addition of the […] (DiFMUP), (Thermo Fisher D6567). […] Rates of reaction were then measured over 30 min by monitoring fluorescence on a BMG Pherastar reader at excitation 360 nm/emission 450 nm. IC50 values were calculated from the normalized dose-response plots using four parameter logistic curve fit.

[1] = DiFMUP substrate, 0.25 μM pIRS1 peptide, 30 min pre-incubation, average where more than one data point, read-out: SHP2 (IC50)

Row | Molecule | IC50 [1] [nM] | IC50 [nM]
1 | 2-(5-{3-[endo-3-amino-8-azabicyclo[3.2.1]octan-8-yl]-5H-pyrrolo[2,3-b]pyrazin-7-yl}-3,4-dichloro-2H-indazol-2-yl)ethan-1-ol [Example 36] | 6 | –
2 | Cn1cc2c(Cl)c(-c3c[nH]c4nc(N5[C@@H]6CC[C@H]5[C@H](F)[C@H](N)C6)cnc34)ccc2n1 (racemic) [Example 12, rac-(1S,2R,3R,5R)-8-[7-(4-chloro-2-methyl-2H-indazol-5-yl)-5H-pyrrolo[2,3-b]pyrazin-3-yl]-2-fluoro-8-azabicyclo[3.2.1]octan-3-amine] | – | 15
3 | Cn1cc2c(Cl)c(-c3n[nH]c4nc(N5[C@H]6CC[C@@H]5[C@@H](F)[C@@H](N)C6)c(CO)nc34)ccc2n1 (racemic) [Example 78, rac-{6-[(1R,2S,3S,5S)-3-amino-2-fluoro-8-azabicyclo[3.2.1]octan-8-yl]-3-(4-chloro-2-methyl-2H-indazol-5-yl)-1H-pyrazolo[3,4-b]pyrazin-5-yl}methanol] | – | 15
4 | CN(C)c1nc2ccc(-c3n[nH]c4nc(N5C6CCC5[C@@H](F)[C@@H](N)C6)c(CO)nc34)c(Cl)c2s1 (stereo in doubt) [Example 123, {6-[(1S,2S,3S,5R)-3-amino-2-fluoro-8-azabicyclo[3.2.1]octan-8-yl]-3-[7-chloro-2-(dimethylamino)-1,3-benzothiazol-6-yl]-1H-pyrazolo[3,4-b]pyrazin-5-yl}methanol] | 9.7 | –
5 | Cc1nc2ccc(-c3n[nH]c4nc(N5C6CCC5[C@@H](F)[C@@H](N)C6)c(C)nc34)c(Cl)c2s1 (stereo in doubt) [Example 146, (1S,2S,3S,5R)-8-[3-(7-chloro-2-methyl-1,3-benzothiazol-6-yl)-5-methyl-1H-pyrazolo[3,4-b]pyrazin-6-yl]-2-fluoro-8-azabicyclo[3.2.1]octan-3-amine] | 7.4 | –
6 | Cn1cc2c(Cl)c(-c3c[nH]c4nc(N5[C@@H]6CC[C@H]5C[C@H](CN)C6)cnc34)ccc2n1 [Example 1, 1-[exo-8-[7-(4-chloro-2-methyl-2-indazol-5-yl)-5H-pyrrolo[2,3-b]pyrazin-3-yl]-8-azabicyclo[3.2.1]octan-3-yl]methanamine] | 13 | –
7 | Cn1cc2c(Cl)c(-c3c[nH]c4nc(N5[C@@H]6CC[C@H]5C[C@H](N)C6)cnc34)ccc2n1 [Example 2, exo-8-[7-(4-chloro-2-methyl-2H-indazol-5-yl)-5H-pyrrolo[2,3-b]pyrazin-3-yl]-8-azabicyclo[3.2.1]octan-3-amine] | 8.1 | –
8 | Cn1cc2c(Cl)c(-c3c[nH]c4nc(N5[C@@H]6CC[C@H]5C[C@@H](N)C6)cnc34)ccc2n1 [Example 3, endo-8-[7-(4-chloro-2-methyl-2H-indazol-5-yl)-5H-pyrrolo[2,3-b]pyrazin-3-yl]-8-azabicyclo[3.2.1]octan-3-amine] | 10 | –
9 | Cn1cc2c(Cl)c(-c3c[nH]c4nc(N5CCC(N)CC5)cnc34)ccc2n1 [Example 4, 1-[7-(4-chloro-2-methyl-2H-indazol-5-yl)-5H-pyrrolo[2,3-b]pyrazin-3-yl]piperidin-4-amine] | 16 | –
10 | Cn1cc2c(Cl)c(-c3c[nH]c4nc(N5CCC(C)(N)CC5)cnc34)ccc2n1 [Example 5, 1-[7-(4-chloro-2-methyl-2H-indazol-5-yl)-5H-pyrrolo[2,3-b]pyrazin-3-yl]-4-methylpiperidin-4-amine] | 18 | –
11 | Cn1cc2c(Cl)c(-c3c[nH]c4nc(N5[C@@H]6CCC[C@H]5C[C@@H](N)C6)cnc34)ccc2n1 [Example 6, endo-9-[7-(4-chloro-2-methyl-2H-indazol-5-yl)-5H-pyrrolo[2,3-b]pyrazin-3-yl]-9-azabicyclo[3.3.1]nonan-3-amine] | 9 | –
12 | Cn1cc2c(Cl)c(-c3c[nH]c4nc(N5CCC(N)(CO)CC5)cnc34)ccc2n1 [Example 7, {4-amino-1-[7-(4-chloro-2-methyl-2H-indazol-5-yl)-5H-pyrrolo[2,3-6]pyrazin-3-yl]piperidin-4-yl}methanol] | 23 | –
13 | Cn1cc2c(Cl)c(-c3c[nH]c4nc(N5[C@@H]6CC[C@H]5C[C@@](C)(N)C6)cnc34)ccc2n1 [Example 8, endo-8-[7-(4-chloro-2-methyl-2H-indazol-5-yl)-5H-pyrrolo[2,3-b]pyrazin-3-yl]-3-methyl-8-azabicyclo[3.2.1]octan-3-amine, methanesulfonic acid salt] | 17 | –
14 | Cn1cc2c(Cl)c(-c3c[nH]c4nc(N5C6CCC5CNC6)cnc34)ccc2n1 [Example 9, 4-chloro-5-(3-{3,8-diazabicyclo[3.2.1]octan-8-yl}-5H-pyrrolo[2,3-b]pyrazin-7-yl)-2-methyl-2H-indazole] | 26 | –
15 | Cn1cc2c(Cl)c(-c3c[nH]c4nc(N5CCC6(CC5)CNC6)cnc34)ccc2n1 [Example 10, 7-[7-(4-chloro-2-methyl-2H-indazol-5-yl)-5H-pyrrolo[2,3-b]pyrazin-3-yl]-2,7-diazaspiro[3.5]nonane] | 14 | –
16 | Cc1nc2c(-c3ccc4nn(C)cc4c3Cl)c[nH]c2nc1N1CCC(C)(CN)CC1 [Example 11, 1-{1-[7-(4-chloro-2-methyl-2H-indazol-5-yl)-2-methyl-5H-pyrrolo[2,3-b]pyrazin-3-yl]-4-methylpiperidin-4-yl]methanamine, dihydrochloride salt] | 43 | –
17 | N[C@H]1C[C@H]2CC[C@@H](C1)N2c1cnc2c(-c3ccc4ncsc4c3Cl)c[nH]c2n1 [Example 13, endo-8-[7-(7-chloro-1,3-benzothiazol-6-yl)-5H-pyrrolo[2,3-b]pyrazin-3-yl]-8-azabicyclo[3.2.1]octan-3-amine, methanesulfonic acid salt] | 6.2 | –
18 | Cc1nc2c(-c3ccc4nn(C)cc4c3Cl)c[nH]c2nc1N1CCC(C)(N)CC1 [Example 14, 1-[7-(4-chloro-2-methyl-2H-indazol-5-yl)-2-methyl-5H-pyrrolo[2,3-b]pyrazin-3-yl]-4-methylpiperidin-4-amine] | 89 | –
19 | Cc1nc2ccc(-c3c[nH]c4nc(N5[C@@H]6CC[C@H]5C[C@@H](N)C6)cnc34)c(Cl)c2s1 [Example 15, endo-8-[7-(7-chloro-2-methyl-1,3-benzothiazol-6-yl)-5H-pyrrolo[2,3-b]pyrazin-3-yl]-8-azabicyclo[3.2.1]octan-3-amine, methanesulfonic acid salt] | 5.9 | –
20 | Cn1cc2c(Cl)c(-c3c[nH]c4nc(N5CCC6(CCN6)CC5)cnc34)ccc2n1 [Example 16, 7-[7-(4-chloro-2-methyl-2H-indazol-5-yl)-5H-pyrrolo[2,3-b]pyrazin-3-yl]-1,7-diazaspiro[3.5]nonane] | 24 | –
21 | Cc1nc2c(-c3ccc4nn(C)cc4c3Cl)c[nH]c2nc1N1[C@@H]2CC[C@H]1C[C@@H](N)C2 [Example 17, endo-8-[7-(4-chloro-2-methyl-2H-indazol-5-yl)-2-methyl-5H-pyrrolo[2,3-b]pyrazin-3-yl]-8-azabicyclo[3.2.1]octan-3-amine] | 20 | –
22 | CN(C)c1nc2ccc(-c3c[nH]c4nc(N5[C@@H]6CC[C@H]5C[C@@H](N)C6)cnc34)c(Cl)c2s1 [Example 18, 6-{3-[endo-3-amino-8-azabicyclo[3.2.1]octan-8-yl]-5H-pyrrolo[2,3-b]pyrazin-7-yl}-7-chloro-N,N-dimethyl-1,3-benzothiazol-2-amine, hydrochloride salt] | 13 | –
